# Source: patent publication US8961986B2, “Peptide composition” (Apitope Technology (Bristol) Limited, priority 2000, dated 2015)
# Entries after “also recorded” stand apart in the source; their conditions may differ.
# Assays:
# [1] = tested on: MBP-specific T cell clones; experiment: T cell clone (TCC) proliferation assay, fine mapping of MBP epitopes; type: cell-based, human; conditions: TCC from MS patients and healthy individuals, proliferative response
# Method: MBP-specific T cell lines (TCL) are generated from 8 MS patients and 2 healthy control donors. PBMC from each subject are separated as described above and plated out at 1×10^6 cells/ml in 6-well plates in the presence of MBP (50 μg/ml); a portion of PBMC from each subject is regularly frozen and stored for subsequent restimulations. Seven days later the cells are fed with fresh medium containing 2% IL-2 (Lymphocult-HT; Biotest LTD., Birmingham, UK), and on day 12 of culture all cells are restimulated with antigen, IL-2 and irradiated (2500 Rad) autologous PBMC as a source of antigen presenting cells (APC), at a cell ratio of 1T cell:5 APC. Cells are expanded in IL-2 every 3-4 days, and on day 14 are restimulated with antigen, IL-2 and PBMC, as described above. On the day of the first restimulation cells are examined for specific proliferation to MBP. Briefly, 2×10^4 T cells and 1×10^5 irradiated autologous PBMC are cultured in triplicate, in 96-well round-bottom plates, in the presence of MBP. Cells are cultured for 2 days and pulsed with (^3H)-Thymidine at 0.4 μCi/well during the last 18 hours of the culture. Cells are then harvested as described above, and a TCL is considered to be MBP-specific with a δcpm>1000 and a SI>3.
# Following 3 restimulation/expansion cycles TCL are cloned using PHA (Sigma, Poole, Dorset, UK)) in the presence of autologous irradiated PBMC as APC. T cells are plated under limiting dilution conditions at 0.1 cell/well, 0.3 cell/well and 1 cell/well and cultured in Terasaki plates (Nunc International, Costar) with 1×10^4 irradiated PBMC, 5 μg/ml PHA, and 2% IL-2. After 10-12 days, growth-positive wells are expanded onto 96-well round-bottom plates, using 1×10^5 irradiated PBMC, 5 μg/ml PHA and IL-2. Three days later wells are fed with fresh medium containing IL-2, and on day 7 the clones are expanded onto 48-well plates using 5×10^5 irradiated PBMC, PHA and IL-2; at this point clones are tested in proliferation assays for specific responses to MBP. MBP-specific clones are expanded a week later onto 24-well plates, using 1×10^6 irradiated PBMC with PHA or Dynabeads (Dynal, UK) and IL-2. The clones are maintained in 24-well plates using a 7-10 day restimulation/expansion cycle, essentially as described above. The ability of T cell clones (TCC) to recognize the panel of MBP peptides is tested by proliferation assays, as described above.
# TCC are generated from 8 MS patients and 2 healthy individuals, and used to clarify the fine specificity of the peptide regions identified in the kinetic response assay. The specificity of each TCC is tested by its proliferative response to the panel of 15-mer peptides. Clone SD:A7 recognised region 1-24, and within this region this TCC responded to a.a. 5-19. Region 30-54 is recognised by 4 clones (MS49:D3, MS49:C8, MS49:A8, MS49:B6) and the epitope within this region is 30-44. […] Five clones (MS43:A7, MS41:B6, MS41:A2, MS41:C6, N5:8) recognize a.a. 83-99 which is contained in region 75-99. One patient produced TCC specific for a.a. 110-124 (MS60:A2, MS60:B3), contained within the 105-129 pool, and another TCC from the same patient is specific to 130-144 (MS60:E1), found within the 120-144 region. Five individuals produce clones which recognize epitopes within the region 135-159: MS60:F7, MS60:D1, MS59:F1 and N5:19 recognizes a.a. 140-154; MS57:A1 is specific to 140-149, and TCC MS17:A3 responds to sequence 130-144. […] Lastly, region 150-170 is recognized by 2 clones specific to a.a. 156-169.
# [2] = tested on: HLA-DQ6; experiment: Antigen presentation assay, HLA-DQ6 transfected L-cells; type: cell-based, human
# From the text: MBP peptides 30-44, 130-144 and 139-153 were synthesized using L-amino acids and standard F-moc chemistry on an Abimed AMS 422 multiple peptide synthesiser.
# L-cells transfected with either HLA-DQ6, HLA-DR2a or HLA-DR2b, or Mgar cells (EACC, Porton Down, UK) which express HLA-DQ, DP and DR were used as APCs.
# T-cell clones MS 49:D3 and MS17:A2 were generated from MS patients and clone N5:19 was generated from a normal individual. All three clones were DR2 positive.
# Antigen presenting cells were incubated with the various concentrations of peptide and the appropriate T-cells. Proliferation, and therefore activation, of the T-cells was measured by [^3H]-Thymidine incorporation, and expressed as the stimulation index (SI=corrected counts per minute (ccpm) culture containing peptide/ccpm culture without peptide).
# [3] = tested on: fixed Mgar (HLA-DR2+ve) APC presenting to T cell clones; experiment: Antigen-presentation assay using an APIPS (fixed APC) with human T cell clones; type: cell-based; conditions: fixed vs live APC, T cell clone proliferation
# Method: Presentation of the peptides to T cell clones is measured by proliferation. APC are fixed in 0.5% paraformaldehyde and plated at 1×10^5 cells per well of a 96-well tissue culture plate. T cells clones are plated at 2×10^4 cells per well in the presence of varying concentrations of peptide. After incubation for 48 h at 37° C., proliferation is measured by [^3H] thymidine incorporation over 16-20 h. Results are compared with the ability of T cells to respond to the epitope presented by live APC.
# In order to investigate whether various MBP peptides are apitopes, their capacity to be presented to T-cells by fixed APC is investigated. Live or […] Mgar (HLA-DR2+ve) cells are pre-pulsed with the peptide in serum, or serum alone for 3.5 hours. Excess peptide is then removed from cells and the appropriate T cell clone added. The T cell proliferative response is measured by ^3H-thymidine uptake.
# (§1) For any given epitope, there may exist one or more apitopes, capable of being presented to APC without further processing. The presence of apitopes within two regions of MBP is investigated by incubating live or p-formaldehyde-fixed Mgar (HLA-DR2+ve) cells are incubated with overlapping peptides in serum from MBP regions 77-100 (FIG. 12) and 125-148 (FIG. 13) or in serum alone. T cells were added and after 72 h (FIG. 12) or after 48 h (FIG. 13) the T cell proliferative response was measured by ^3H-thymidine uptake. For MBP 77-100, the T cells are isolated from a DR2:MBP 82-100 transgenic mouse, whereas for MBP 130-144 the T cell clone MS17:A3 is used.
# [4] = tested on: 81-111-responsive T-cell line and sub-lines; experiment: Reactivity of T cell lines and clones from peptide-primed mice to MBP 81-111 region peptides; type: cell-based; conditions: six clones generated
# Method: In order to investigate T cell reactivity to the 81-111 region of MBP, lymph node cells from mice primed with 81-111 are stimulated with 81-111 in vitro and these cells are tested with a panel of overlapping 10-mer peptides with two residue shifts covering the 81-111 region (namely: 81-90, 83-92, 85-94, 87-96, 89-98, 91-100, 93-102, 95-104, 97-106, 99-108 and 101-111). The response pattern to peptides covering the 89-101 show stimulatory capacity for 5 adjacent peptides (N terminal 87-96 through to 95-104) reflecting the presence of at least two (and perhaps three) distinct epitopes.
# In order to investigate this region further, three sub-lines are generated from the original 81-111-responsive T-cell line and these are retested with a panel of overlapping 10-mer peptides with one residue shift covering the 84-106 region. The results reveal the existence of three distinct but overlapping T cell epitopes within the 89-101 sequence: 89-94, 92-98 and 95-101 (see FIG. 14).
# [5] = tested on: splenocytes from double transgenic mice; experiment: Induction of tolerance with Apitope MS7 in HLA:DR2 / TCR MBP 82-100 double-transgenic mice, splenocyte proliferation; type: in vivo
# Method: (§2) Groups of 6 or 7 age (8-12 weeks) and sex matched double transgenic mice were used. In the first experiment one group was treated ten times intranasally with 100 μg Apitope MS7 in […] at regular intervals over a period of three weeks. The control group received PBS alone. In the second experiment the same amount of peptide was given by subcutaneous/intradermal administration in […] PBS. The control group received the same volume of PBS.
# Three days after the last administration of peptide or PBS, the spleens were harvested and cell suspensions prepared. The splenocytes were incubation with 0.5 or 5 μg/ml Apitope MS7, and assessed for proliferation by [^3H]-Thymidine incorporation after 48, 72 and 96 hours of culture. Results are expressed as stimulation indices (SI=counts per minute (cpm) of culture containing antigen/counts per minute without antigen).
# [6] = tested on: fixed Mgar (HLA-DR2+ve) APC presenting to T cells from DR2:MBP 82-100 transgenic mouse; experiment: Antigen-presentation assay using an APIPS (fixed APC) with T cells from DR2:MBP82-100 transgenic mouse; type: cell-based; conditions: live or p-formaldehyde-fixed Mgar cells, 72 h
# Method: Presentation of peptides to T cells isolated from DR2:MBP82-100 transgenic mouse was essentially as described above except APC were plated at 5×10^5 cells per well, T cells were plated at 1×10^5 cells per well, and incubation was allowed to proceed for 72 h prior to the addition of [^3H]-thymidine.
# as §1
# [7] = tested on: HLA-DR2; experiment: HLA-DR2 binding of cocktail peptides; design: species or system human
# [8] = tested on: splenocytes from double transgenic mice; experiment: Induction of tolerance with Apitope MS7 in double-transgenic mice, splenocyte cytokine ELISA; type: in vivo; conditions: 48 hr cultures; subcutaneous/intradermal treatment vs PBS
# Method: as §2
# In the second experiment, where tolerance induction was induced via the subcutaneous/intradermal route, cell culture supernatants from the splenocytes were collected at 48 and 72 hrs of culture, and assayed for the presence of IFN-γ and interleukin-2 (IL-2) using an enzyme linked immunosorbant assay (ELISA).
# [9] = tested on: MHC class I or II molecule; conditions: cited from earlier work
# [10] = tested on: lymphocytes from HLA:DR2 (DRB1*1501) transgenic mice; experiment: Induction of tolerance with Apitope MS6 in HLA:DR2 transgenic mouse, lymph node cell proliferation; type: in vivo
# Method: HLA:DR2 transgenic mice aged 8-12 weeks were used in the study. The mice were tolerized by pre-treatment with 100 μg of Apitope MS6 in […] phosphate buffered saline (PBS) or […] alone, by intranasal administration on days −8, −6 and −4 prior to immunisation on day 0.
# Following tolerization, mice were immunised subcutaneously with […] an emulsion containing an equal volume of Complete Freund's Adjuvant (CFA) and PBS containing 200 μg of Apitope MS6 and 400 μg heat-killed Mycobacterium tuberculosis. A control group of mice, previously tolerized with PBS intranasally, were immunised without peptide.
# At 10 days post subcutaneous immunisation, draining popliteal and inguinal lymph nodes were removed and T-cell activation was assessed by assaying the proliferation of T-cells in response to various concentrations of Apitope MS6. Proliferation was measured by [^3H]-Thymidine incorporation, and expressed as the stimulation index (SI=corrected counts per minute (ccpm) culture containing peptide/ccpm culture without peptide).
substance,measurement,setting,value
H-Pro-Arg-His-Arg-Asp-Thr-Gly-Ile-Leu-Asp-Ser-Ile-Gly-Arg-Phe-NH2 (H-PRHRDTGILDSIGRF-NH2) [MBP 30-44],T cell clones (TCC) recognising the peptide,[1],4
same,HLA-DQ6 binding,[2],HLA-DQ6 binding
same,proliferative response versus Mgar control cells,"[2]; T-cell clone MS 49:D3, highest peptide concentration",1.5 fold
same,presentation by fixed APC without further processing (apitope),[3],shown to act as apitopes; also recorded: found to be apitopes; also recorded: can be presented by fixed APC without further processing
"MBP 92-98: cryptic T cell epitope within MBP 89-101 (IRLFSRD; UniProt P02686 92-98, looked up, fragment)",T cell clones from mice primed with the 89-101 peptide responding,[4],all six clones
H-Glu-Asn-Pro-Val-Val-His-Phe-Phe-Lys-Asn-Ile-Val-Thr-Pro-Arg-Thr-Pro-NH2 (H-ENPVVHFFKNIVTPRTP-NH2) [MBP 83-99],T cell clones (TCC) recognising the peptide,[1],Five
same,"mean SI of splenocyte proliferation, intranasal treatment","[5]; 72 hrs, cultures with 5 μg/ml 83-99, PBS control mean SI 89",17
same,"mean SI of splenocyte proliferation, subcutaneous treatment",[5]; PBS treated animals mean SI 124,49
same,"splenocyte proliferation after treatment, both routes",[5]; intranasal and subcutaneous/intradermal,striking reduction in proliferation
same,apitope within MBP region 77-100,[6],shown to act as apitopes
same,HLA-DR2 binding,[7],HLA-DR2 binding
same,IFNγ secretion in splenocyte culture supernatants,[8],impressive reduction in secretion
same,IL-2 secretion in splenocyte culture supernatants,[8],impressive reduction in secretion
H-Gly-Phe-Lys-Gly-Val-Asp-Ala-Gln-Gly-Thr-Leu-Ser-Lys-Ile-Phe-NH2 (H-GFKGVDAQGTLSKIF-NH2) [MBP 140-154],T cell clones (TCC) recognising the peptide,[1],responded
same,T cell clones (TCC) recognising the peptide,[1]; listed as 140-154,recognizes
same,identified as apitope in WO 03/064464,[9],apitopes
same,HLA-DR2 binding,[7],HLA-DR2 binding
same,SI median of lymphocyte proliferation after intranasal pre-treatment,"[10]; Group B, 100 μg intranasal days -8, -6, -4, recall peptide 150 μg/ml (PBS group SI median 2.5 to 10)",3
same,tolerance induction in lymphocytes from HLA-DR2 mice,[10]; intranasal pre-treatment,has induced tolerance
